Source: patent publication US20250332173A1, “COMPOUNDS AND METHODS FOR MODULATING NUCLEIC ACID SPLICING” (REMIX THERAPEUTICS INC., priority 2021, published 2025)
Read-outs that look alike come from different tables or passages of the source.

Tests used:
[1] = test system: Target C; experiment: HiBiT protein abundance assay, Target C (Promega Nano-Glo HiBiT Lytic Detection System, knock-in K562 cell line); assay type: cell-based, human; conditions: Homo sapiens, K562, 24 h, HiBiT K562 cell line, 24 hours, top dose 10 μM; read-out: Effect on protein abundance, Target C (IC50 category)
Summary of the method: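 Protein abundance was read by Nano-Glo HiBiT lytic luminescence after 24 h compound exposure (10-point, threefold series from 10 μM final) of HiBiT knock-in K562 cells. Parental K562 served as baseline; the 50%-abundance concentration was interpolated from a four-parameter logistic fit.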

[2] = test system: K562 (human chronic myelogenous leukemia) cells; experiment: Cell Titer Glo 2.0 cell viability assay; assay type: cell-based; conditions: Homo sapiens, K562, 72 h, K562 cells, 72 hours, Cell Titer Glo 2.0; read-out: K562 GI50
[3] = test system: SMN2 mRNA; experiment: RT-qPCR splicing assay, SMN2 canonical junction (CJ) mRNA; assay type: cell-based, human; conditions: Homo sapiens
Summary of the method: (§1)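 Cells are plated (A673 allowed 24 h to adhere), dosed with an 11-point 3-fold series topping at 10 uM final, and incubated 24 h at 37 °C. Lysis is followed by cDNA synthesis and qPCR of the CJ transcript, normalized to a housekeeping gene.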

[4] = test system: Target C; experiment: RT-qPCR splicing assay panel, Target C canonical junction (CJ) mRNA; assay type: cell-based, human; conditions: Homo sapiens
Summary of the method: as §1

[5] = Table 5 panel, canonical junction qPCR, compound concentration having 50% response in CJ decrease, read-out: SMN2 IC50 (decrease in CJ mRNA levels)
[6] = Table 5 panel, canonical junction qPCR, compound concentration having 50% response in CJ decrease, read-out: Target C IC50 (decrease in CJ mRNA levels)
[7] = canonical junction qPCR panel, Table 5, read-out: SMN2 (decrease in CJ mRNA levels, IC50)
[8] = canonical junction qPCR panel, Table 5, read-out: Target C (decrease in CJ mRNA levels, IC50)

Compound | IC50 [1] | GI50 [2] | IC50 [3, 5] | IC50 [4, 6] | IC50 [3, 7] | IC50 [4, 8]
Cc1c(O)c(-c2ncc3c(=O)n(C4CCNCC4)cc(C)c3n2)cc2cn(C)nc12 [Compound 1191] | < 100 nM | < 100 nM | < 100 nM | 100 to 1000 nM | – | –
Cc1cn2cc(-c3ncc4c(=O)n([C@@H]5CCNC5)ccc4n3)cc(F)c2n1 [Compound 1228] | 1000 to 10000 nM | 1000 to 10000 nM | < 100 nM | > 10000 nM | – | –
Cc1c(O)c(-c2ncc3c(=O)n([C@H]4CCN[C@@H](C)C4)ccc3n2)cc2cn(C)nc12 [Compound 1441, 2-(6-hydroxy-2,7-dimethyl-indazol-5-yl)-6-(2-methyl-4-piperidyl)pyrido[4,3-d]pyrimidin-5-one] | 100 to 1000 nM | < 100 nM | – | – | < 100 nM | 100 to 1000 nM
Cc1c(O)c(-c2ncc3c(=O)n(N4CCNCC4)ccc3n2)cc2cn(C)nc12 [Compound 1303] | 100 to 1000 nM | 100 to 1000 nM | – | – | < 100 nM | 100 to 1000 nM
Cn1cc2cc(-c3ncc4c(=O)n(C5CCNCC5)ccc4n3)c(O)cc2n1 [Compound 1211] | 100 to 1000 nM | < 100 nM | < 100 nM | 1000 to 10000 nM | – | –
Cc1cc(-c2cc3ccn(C4CCN(CCO)CC4)c(=O)c3cn2)cc2cn(C)nc12 [Compound 1210, 6-(2.7-dimethyl-2H-indazol-5-yl)-2-(1-(2-hydroxyethyl)piperidin-4-yl)-2,7-naphthyridin-1(2H)-one] | > 10000 nM | 1000 to 10000 nM | 100 to 1000 nM | > 10000 nM | – | –
Cc1c(O)c(-c2ccc3c(=O)n([C@@H]4CCNC4)ccc3n2)cc2cn(C)nc12 [Compound 1450, 2-(6-hydroxy-2,7-dimethyl-indazol-5-yl)-6-[(3R)-pyrrolidin-3-yl]-1,6-naphthyridin-5-one] | 1000 to 10000 nM | 100 to 1000 nM | – | – | < 100 nM | > 10000 nM
Cc1c(O)c(-c2ncc3c(=O)n(C4CCN(C)CC4)ccc3n2)cc2cn(C)nc12 [Compound 1304] | 1000 to 10000 nM | 100 to 1000 nM | – | – | < 100 nM | 1000 to 10000 nM
Cc1c(O)c(-c2ncc3c(=O)n(C45CCC(N)(CC4)C5)ccc3n2)cc2cn(C)nc12 [Compound 1428] | 1000 to 10000 nM | < 100 nM | – | – | < 100 nM | 1000 to 10000 nM
COc1c(-c2ccc3c(=O)n(C4CCNCC4)ccc3n2)cc2cn(C)nc2c1C [Compound 1243] | > 10000 nM | > 10000 nM | – | – | > 10000 nM | > 10000 nM
Cn1cc2cc(-c3ccc4c(=O)n([C@@H]5CCNC6(CC6)C5)ccc4n3)c(O)cc2n1 [Compound 1246] | 100 to 1000 nM | 100 to 1000 nM | – | – | < 100 nM | 1000 to 10000 nM
Cn1cc2ccc(-n3cnc4cc(NC5CCNCC5)ccc4c3=O)cc2n1 [Compound 204] | > 10000 nM | > 10000 nM | > 10000 nM | > 10000 nM | – | –
Cc1c(O)c(-c2ncc3c(=O)n(C4CNC4)ccc3n2)cc2cn(C)nc12 [Compound 1305, 6-(azetidin-3-yl)-2-(6-hydroxy-2,7-dimethyl-indazol-5-yl)pyrido[4,3-d]pyrimidin-5-one] | > 10000 nM | 1000 to 10000 nM | – | – | < 100 nM | > 10000 nM
Cc1c(O)c(-c2ncc3c(=O)n([C@H]4C[C@@H](N)C4)ccc3n2)cc2cn(C)nc12 [Compound 1431, 6-((1s,3s)-3-aminocyclobutyl)-2-(6-hydroxy-2,7-dimethyl-2H-indazol-5-yl)pyrido[4,3-d]pyrimidin-5(6H)-one] | 1000 to 10000 nM | 1000 to 10000 nM | – | – | 100 to 1000 nM | 1000 to 10000 nM
Cc1c(O)c(-c2ncc3c(=O)n([C@@H]4C[C@@H](C)N[C@@H](C)C4)ccc3n2)cc2cn(C)nc12 [Compound 1453, 6-[(2S,6R)-2,6-dimethyl-4-piperidyl]-2-(6-hydroxy-2,7-dimethyl-indazol-5-yl)pyrido[4,3-d]pyrimidin-5-one] | > 10000 nM | 100 to 1000 nM | – | – | < 100 nM | > 10000 nM
Cc1c(O)c(-c2ncc3c(=O)n(C4C[C@H]5C[C@@H]4CN5)ccc3n2)cc2cn(C)nc12 (stereo in doubt) [Compound 1444, 6-[(1R,4R,5R)-2-azabicyclo[2.2.1]heptan-5-yl]-2-(6-hydroxy-2,7-dimethyl-indazol-5-yl)pyrido[4,3-d]pyrimidin-5-one] | 100 to 1000 nM | 100 to 1000 nM | – | – | < 100 nM | 100 to 1000 nM
Cc1cn2cc(-c3ncc4c(=O)n([C@H]5CCNC5)ccc4n3)cc(F)c2n1 [Compound 1220] | – | 100 to 1000 nM | < 100 nM | 100 to 1000 nM | – | –
Cc1cn2cc(-c3ccc4c(=O)n(C5CCNC5)ccc4n3)c(O)c(C)c2n1 (centres unmarked) [Compound 1302] | > 10000 nM | > 10000 nM | – | – | 1000 to 10000 nM | > 10000 nM
